Series [1] deals with Colon cancer cell line: Colo 205. Nature of the series: Living Colo 205 cells by MTT test. Type of series: cell-based, homo sapiens. Particulars: 24 h. On the procedure:
After adherence of the cells (incubation 24 h, cell amount 1×10^4 cells per batch), the cells were treated for 24 h with MCS and/or peptides (Hellethionin C (CZT), Hellethionin D (DZT)) and afterwards the percentage of living cells was measured by MTT test.
The MTT cell growth test was carried out according to Alley et. al. (M. C. Alley et al., Proc. Am. Assoc. Cancer Res., 27:389, 1986; M. C. Alley et al., Cancer Res. 48:589-601, 1988). The finale concentration of 3-(4,5-dimethylthiazol-2-yl)-2,5-diphenyltetrazoliumbromide was 0.4 mg/ml.
On the technique in general: Formazan colour is commonly taken as a measure of viable cells.

Series [2] deals with murine peritoneal macrophages. Nature of the series: Effect on murine peritoneal macrophages (NO, TNF-α, IL-10, survival). Format: cell-based, CD1 mice. As to conditions: 24 hours; for IL-10 / TNF-α: control 0; for NO: control 1.1; for Survival rate: control 100. On the procedure:
Murine peritoneal macrophages extracted from CD1 mice were used. A peritoneal flushing was carried out using 5 ml of PBS. After three washing processes with RPMI 1640 the cells were put into a 96-well culturing plate with a concentration of 1×10^6 cells/ml (200 μl/well) in 10% FCS-RPMI 1640 medium and kept for 24 hours. After the incubation the cells were washed three times with RPMI 1640 and resuspended in 10% FCS-RPMI 1640 medium (100 μl/well) in the absence (non stimulated) or in the presence (stimulated) of different stimulants. After 24 hours of incubation NO, IL-10 and TNF-α were measured in the culture supernatant.

Series [3] deals with lung carcinoma cell line: A549. The experiment in a line: Living A549 cells by AlamarBlue test. Particulars: 100 μg/ml, after 72 h, FIG. 4. Format: cell-based, homo sapiens. On the procedure:
Cell line: lung carcinoma cell line: A549 (ATCC No. CCL-185™), organism: homo sapiens, literature: Giard D J, et al. J. Natl. Cancer Inst. 51: 1417-1423, 1973.
After adherence of the cells (incubation 24 h, cell amount 5×10^3 cells per batch), the cells were treated for 72 h with MCS and/or peptides (CZT, DZT) and afterwards the percentage of living cells was measured by AlamarBlue test.
AlamarBlue™ cell growth test was carried out according to the specifications of the manufacturer (Serotec, Oxford, England, www.serotc.com).
In general terms: Alamar Blue is a resazurin reagent that responds to reducing activity.

In series [4] the test system is primary human immune cells. Nature of the series: Effect on the cytokine production of primary human immune cells (Quantikine ELISA in lymphocyte cultures). Type of series: cell-based. As to conditions: for TGF-β2 concentration: control 9; for IL-4 concentration: control 34; for IL-3 concentration: control 41; for IL-2R concentration: control 44; for IL-10 concentration: control 69; for IL-6R concentration: control 171. The method, then: The effect of the peptide HT-A on the cytokine production of primary human immune cells was determined through the measurement of the concentration of cytokines in lymphocyte cultures obtained from human blood. Dosages of 4-200 μg/ml of the hellethionins were used, which were obtained by adding the calculated amounts in the form of a stock solution. The concentration of individual cytokines in the treated and control samples is determined by means of the commercially available “Quantikine” ELISA plates from R&D Biosystems, Minneapolis, USA. The results were compared with control samples, i.e. with the lymphocyte culture without addition of the peptide.
In the case of the lymphocyte cultures (4 million cells per ml) treated with 4 μg and 200 μg of the peptide HT-A, respectively, the following cytokine (and cytokine receptor) concentrations [pg/ml] were obtained in comparison with the control sample (without peptide): […]
A general note: In an ELISA, binding on a coated surface is turned into a signal by an enzyme label.

Another series has as its system human lymphocytes. Particulars: Büssing A. et al. 1999; cited from earlier work.
The conditions of series [5]: mammals; cited from earlier work.

Bridge positions count the residues as written; N and C are the ends. Ends that are not written are not given here.

In the case of “KSCCRNTLARNCYNACRFTGGSQPTCGILCDCIHVTTTTCPSSHPS (disulfide 3-40, 4-32, 12-30, 16-26) [HT-D, hellethionin-D]”, the “Living Colo 205 cells” value is on record as 92.15% in series [1] (50 μg/ml); “about 50%” in series [1] (100 μg/ml, listed as DZT); 58.66% in series [1] (100 μg/ml, listed as DZT peptide). The IL-10 in series [2] (5 μg/ml) and in series [2] (100 μg/ml) was 0 pg/mL throughout. The values for the TNF-α in series [2] (5 μg/ml) and in series [2] (100 μg/ml) were 18 pg/mL and 0 pg/mL, respectively. Moreover, the NO in series [2] (5 μg/ml) amounted to 0.8 µM; in series [2] (100 μg/ml), 1.3 µM. For the same substance, the results for the Survival rate in series [2] (5 μg/ml) and in series [2] (100 μg/ml) were 87.6% and 42.8%, respectively. Further, the “living cells (A549)” value in series [3] is “about 50%”.
Turning to “KSCCRNTLGRNCYNACRLTGTSQATCATLCDCIHVTATTCRPPYPS (disulfide 3-40, 4-32, 12-30, 16-26) [HT-C, hellethionin-C]”, the Survival rate in series [2] (5 μg/ml) is listed as 80.3%; in series [2] (100 μg/ml) it was 10.7%.
As for hellethionin-A [HT-A], in series [4] (4 μg/ml peptide), the TGF-β2 concentration is 105 pg/mL, the IL-4 concentration came to 19 pg/mL, the IL-3 concentration amounted to 26 pg/mL and the IL-2R concentration is 30 pg/mL. In series [4] (4 μg/ml peptide), this substance came in with an IL-10 concentration of 288 pg/mL and an IL-6R concentration of 100 pg/mL. In addition, in series [4] (200 μg/ml peptide), the TGF-β2 concentration is 45 pg/mL, the IL-4 concentration was determined as 12 pg/mL, the IL-3 concentration is 8 pg/mL and the IL-2R concentration came to 67 pg/mL. In series [4] (200 μg/ml peptide), this substance displayed an IL-10 concentration of 12 pg/mL and an IL-6R concentration of 65 pg/mL. Moreover, in series [4] (4 and 200 μg/ml), the “expression of pro-inflammatory cytokines IL-2, IL-3, IL-4 and γ-IFN” value is recorded as “inhibiting the expression”; the “influence on production of IL-6 or TNF-α and expression of the IL-1 receptor” value is recorded as “no significant influence”. In series [4] (more intense at 4 μg/ml than at 200 μg/ml), the “effect on cytokines acting suppressively, IL-10 and TGF-β2” value is “shows a stimulation”.
Take purothionins: the “toxic effect on human lymphocytes” value in the series with human lymphocytes was “do not exert a toxic effect”.
Usually LD50 stands for the dose expected to kill half of the subjects tested. On to viscotoxins, for which the “toxic effect on human lymphocytes” value in the series on human lymphocytes is given as “toxic”. For the same substance, the LD50 in series [5] is 0.1 to 1 mg/kg.

Values taken from patent US7750114B2, “Peptides having a high cysteine content” (priority 2002, dated 2010).
